In patent US8765409B2, “Efficient production of heterologous proteins using mannosyl transferase inhibitors” (Merck Sharp & Dohme Corp., priority 2008, dated 2014):

Tests used:
[1] = tested on: O-glycosylation of human anti-Her2 antibody in Pichia pastoris strain yGLY4280 (Pmt-mediated); test: O-glycan occupancy of secreted anti-Her2 antibody (Dionex HPAEC-PAD) from shake-flask cultures treated with Pmt inhibitor; type: cell-based; details: inhibitor 0.15 ug/mL added at induction; 24 hr in induction media; protein A purified anti-Her2; no inhibitor >14.0
Method: Anti-Her2 protein expression for strain yGLY4280 was carried out in shake flasks at 24° C. with buffered glycerol-complex medium (BMGY) consisting of 1% yeast extract, 2% peptone, 100 mM potassium phosphate buffer pH 6.0, 1.34% yeast nitrogen base, 4×10-5% biotin, and 1% glycerol. The induction medium for protein expression was buffered methanol-complex medium (BMMY) consisting of 1% methanol instead of glycerol in BMGY. Pmt inhibitors in 100% methanol were added to the growth medium to a final concentration of 0.15 ug/mL at the time the induction medium was added. This is an intermediate dose that is sufficient to reduce O-glycosylation to roughly 50% of that observed without Pmt inhibitor treatment, and thus allows a comparison of potency for the different inhibitors. Following 24 hr further growth in the induction media, cultures were harvested and centrifuged at 2,000 rpm for five minutes to remove cells from the supernatant.
O-glycan determination was performed using a Dionex-HPLC(HPAEC-PAD) as follows. To measure O-glycosylation reduction, protein was purified from the growth medium using protein A chromatography (Li et al. Nat. Biotechnol. 24(2):210-5 (2006)) and the O-glycans released from and separated from protein by alkaline elimination (beta-elimination) (Harvey, Mass Spectrometry Reviews 18: 349-451 (1999)). This process also reduces the newly formed reducing terminus of the released O-glycan (either oligomannose or mannose) to mannitol. The mannitol group thus serves as a unique indicator of each O— glycan. 0.5 nmole or more of protein, contained within a volume of 100 μL PBS buffer, was required for beta elimination. The sample was treated with 25 μL alkaline borohydride reagent and incubated at 50° C. for 16 hours. About 20 uL arabitol internal standard was added, followed by 10 μL glacial acetic acid. The sample was then centrifuged through a Millipore filter containing both SEPABEADS and AG 50W-X8 resin and washed with water. The samples, including wash, were transferred to plastic autosampler vials and evaporated to dryness in a centrifugal evaporator. 150 μL 1% AcOH/MeOH was added to the samples and the samples evaporated to dryness in a centrifugal evaporator. This last step was repeated five more times. 200 μL of water was added and 100 μL of the sample was analyzed by high pH anion-exchange chromatography coupled with pulsed electrochemical detection-Dionex HPLC(HPAEC-PAD). Average O-glycan occupancy was determined based upon the amount of mannitol recovered.

[2] = tested on: O-glycosylation of anti-Her2 heavy chain (Hc) in Pichia pastoris strain yGLY4280; test: Western blot of anti-Her2 heavy chain O-glycosylation with 2-fold dilutions of Pmt inhibitor in 96-well plates (FIG. 1); type: cell-based; details: 2-fold dilutions 5 to 0.009 ug/mL, 24 hours; for concentration as low as which O-glycosylation of anti-Her2 Hc was effectively reduced: Western blot
Description: FIG. 1 illustrates the effect of Pmt inhibitors including the novel inhibitor shown as Example 4 on O-glycosylation of secreted recombinant monoclonal antibody in Pichia pastoris. […] Western blotting using an anti-human H+L antibody was used to detect heavy (Hc) and light (Lc) chains in the growth media of strains treated with increasing amounts of Pmt inhibitor (higher doses in left lanes). The slowest migrating band (marked with asterisk) indicates the O-glycosylated Hc which is eliminated by Pmt inhibitor treatment. […] Strain yGLY4280 was inoculated into 96-well deep well plates (Qiagen, Valencia, Calif.) containing 0.5 ml of BMGY media per well. After 24 hours growth with vigorous shaking, the 96-well plate was centrifuged at 2,000 rpm for five minutes to pellet cells. The media was removed and, following a wash step with 0.5 mL of BMMY media, the cells resuspended in 0.2 mL BMMY media in which Pmt inhibitors were diluted 2-fold across the rows (11 wells). Well #1 contained 5 ug/mL of inhibitor, well #2 contained 2.5 ug/mL and so on until well #10 contained 0.009 ug/mL; well #11 contained no inhibitor. After an additional 24 hours growth with vigorous shaking, the plate was centrifuged at 2,000 rpm for five minutes to pellet cells, and the cleared supernatant subjected to Western blot analysis to detect anti-Her2 expression. The Western blotting was performed as follows: seven μL of the supernatants were separated by reducing polyacrylamide gel electrophoresis (SDS-PAGE) according to Laemmli, U. K. (1970) Nature 227, 680-685 and then electroblotted onto nitrocellulose membranes (Schleicher & Schuell, now Whatman, Inc., Florham Park, N.J.). Anti-Her2 antibody chains were detected on the Western blots using a peroxidase-conjugated anti-human Hc and Lc antibody (Calbiochem/EMD Biosciences, La Jolla, Calif.) and developed using the ImmunoPure Metal Enhanced DAB Substrate Kit (Pierce Biotechnology, Rockford, Ill.).

## COCC(COC)(Oc1cc(/C=C2/SC(=S)N(CC(=O)O)C2=O)ccc1OCCc1ccc(F)cc1)c1ccccc1 [Example 1]
[1]
  O-glycan occupancy (moles O-mannose/moles Ab): 4.1 moles O-mannose/moles Ab

## O=C(O)CN1C(=O)/C(=C/c2ccc(OCCc3ccc(F)cc3)c(OC(c3ccccc3)c3ccccc3)c2)SC1=S [Example 2]
[1]
  O-glycan occupancy (moles O-mannose/moles Ab): 4.3 moles O-mannose/moles Ab

## O=C(O)CN1C(=O)/C(=C/c2ccc(OCCc3ccc(F)cc3)c(OC(c3ccccc3)C3CCCCC3)c2)SC1=S (centres unmarked) [Example 3]
[1]
  O-glycan occupancy (moles O-mannose/moles Ab): 5.5 moles O-mannose/moles Ab

## CC(C)COCC(Oc1cc(/C=C2\SC(=S)N(CC(=O)O)C2=O)ccc1OCCc1ccc(F)cc1)c1ccccc1 (centres unmarked) [Example 4]
[1]
  O-glycan occupancy (moles O-mannose/moles Ab): 5.2 moles O-mannose/moles Ab
[2]; FIG. 1
  effect on O-glycosylation of anti-Her2 Hc (Western blot, in words): reduced O-glycosylation in a dose-dependent fashion
[2]
  concentration as low as which O-glycosylation of anti-Her2 Hc was effectively reduced: 0.018 µg/mL

## O=C(O)CN1C(=O)/C(=C/c2ccc(OCCc3ccccc3)c(OC(CO)c3ccccc3)c2)SC1=S (centres unmarked) [Pmti-3, reference compound]
[1]
  O-glycan occupancy (moles O-mannose/moles Ab): 8.1 moles O-mannose/moles Ab
[2]
  concentration as low as which O-glycosylation of anti-Her2 Hc was effectively reduced: 0.018 µg/mL
